The values that follow come from EP1323715B1, “Inhibitors of cholesterol esterase” (The University of New Mexico, priority 1997, dated 1998).

The target of assay [1] is T1, cholesterol esterase (CE) (Homo sapiens, UniProt P19835).
T1 sequence (P19835 21-753): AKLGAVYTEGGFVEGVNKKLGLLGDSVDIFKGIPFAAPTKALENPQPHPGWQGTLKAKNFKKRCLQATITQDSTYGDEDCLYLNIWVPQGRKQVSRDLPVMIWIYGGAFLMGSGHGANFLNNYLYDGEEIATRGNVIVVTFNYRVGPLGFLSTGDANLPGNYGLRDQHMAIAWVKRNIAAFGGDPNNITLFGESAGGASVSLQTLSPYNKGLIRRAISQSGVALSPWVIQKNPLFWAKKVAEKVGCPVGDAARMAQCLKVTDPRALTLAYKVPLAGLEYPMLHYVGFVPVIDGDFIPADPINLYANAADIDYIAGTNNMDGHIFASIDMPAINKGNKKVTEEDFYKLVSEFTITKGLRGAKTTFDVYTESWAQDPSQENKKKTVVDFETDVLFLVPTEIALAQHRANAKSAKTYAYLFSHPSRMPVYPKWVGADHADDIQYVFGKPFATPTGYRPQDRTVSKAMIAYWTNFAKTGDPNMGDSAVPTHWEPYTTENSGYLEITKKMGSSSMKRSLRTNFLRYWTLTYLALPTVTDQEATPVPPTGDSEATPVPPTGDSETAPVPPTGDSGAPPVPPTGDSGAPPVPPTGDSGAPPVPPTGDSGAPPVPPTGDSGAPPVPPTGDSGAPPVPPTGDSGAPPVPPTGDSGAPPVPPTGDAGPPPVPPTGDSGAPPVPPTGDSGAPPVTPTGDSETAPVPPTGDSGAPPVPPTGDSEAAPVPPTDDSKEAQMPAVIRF
Nature of the assay: Kinetic inhibition studies of CE with substrate p-nitrophenylbutyrate, Dixon plots. Conditions: for inhibition of CE (in words): kinetic inhibition studies.

The next assay addresses chymotrypsin (Bos taurus, UniProt P00766). Nature of the assay: Inhibition of chymotrypsin. The class given is biochemical. An excerpt: Thus, the compounds of the present invention which have a saturated ring as part of the 3-substituent provide tremendous selectivity when compared to compounds where the 3-substituent includes an aromatic ring.
The conditions of assay [2]: rats, single intragastric dose simultaneous with feeding of cholesterol ester; cited from earlier work.
The next assay has as its target T2, lumenal CE (Rattus norvegicus, UniProt P07882).
T2 construct: from tissue; host or cells: rat intestinal lumen (in vivo)
T2 sequence (P07882 21-612): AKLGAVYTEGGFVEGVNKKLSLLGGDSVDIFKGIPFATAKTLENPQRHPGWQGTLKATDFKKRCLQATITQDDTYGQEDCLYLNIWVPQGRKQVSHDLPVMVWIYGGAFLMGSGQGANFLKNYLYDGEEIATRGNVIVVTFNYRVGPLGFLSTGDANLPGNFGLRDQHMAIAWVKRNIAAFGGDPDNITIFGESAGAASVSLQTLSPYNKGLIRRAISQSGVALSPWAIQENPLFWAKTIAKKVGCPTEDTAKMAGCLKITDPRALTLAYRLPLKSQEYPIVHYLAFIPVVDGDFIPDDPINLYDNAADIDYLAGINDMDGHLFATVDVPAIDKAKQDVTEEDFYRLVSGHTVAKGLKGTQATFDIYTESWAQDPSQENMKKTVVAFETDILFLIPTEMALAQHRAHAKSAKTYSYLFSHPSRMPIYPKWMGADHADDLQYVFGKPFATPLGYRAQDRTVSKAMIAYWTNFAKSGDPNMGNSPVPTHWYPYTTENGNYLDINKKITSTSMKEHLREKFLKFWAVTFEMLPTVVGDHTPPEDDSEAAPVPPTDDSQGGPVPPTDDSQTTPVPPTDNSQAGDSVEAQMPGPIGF
The note with it: rats, single intragastric dose simultaneous with feeding of cholesterol ester; cited from earlier work.

In the next assay the target is T3, CE (Homo sapiens, UniProt P19835).
T3 sequence (P19835 21-753): T1 sequence (P19835 21-753)
Conditions: in vitro; cited from earlier work.

Turning to `O=c1oc(Cl)ccc1CCCC1CCCCC1` [Example 4], the “inhibition of CE (in words)” value in assay [1] was “potent inhibitors of CE”.

In the case of `O=c1oc(Cl)ccc1CC1CCCCC1` [Example 2], the “inhibition of CE (in words)” value in assay [1] is on record as “potent inhibitors of CE”.

For the molecule `O=c1oc(Cl)ccc1CCC1CCCCC1` [Example 3], the Ki on chymotrypsin was 50 µM; in assay [1] (calculated Ki, apparent Ki from Dixon plots, equals one half of the concentration of CE used in the assay) it was 0.03 µM.

Turning to `O=c1oc(Cl)ccc1Cc1ccccc1` [3-benzyl-6-chloropyrone], the “drop in cholesterol absorption” value in assay [2] is given as 60%. The “inactivation of lumenal CE activity” value at lumenal CE is recorded as 63%. In addition, the “half life of CE inactivation” value on CE was 1.67 min.
